Reference: patent US6958141B2, “Rhenium and technetium complexes containing a hypoxia-localizing moiety” (Bracco International B.V., priority 1991, dated 2005)

Assay: Determination of reduction potential by cyclic voltammetry
Type: physicochemical
Details: for Epc(V): cyclic voltammetry in dimethylformamide at Hg, vs. Ag/AgNO3; for Reduction process: cyclic voltammetry in dimethylformamide
Method: The reduction potentials of misonidazole, ^99TcO(PnAO), and ^99Tc-hypoxia-localizing tracers were determined by cyclic voltammetry (C.V.) in dimethylformamide. […] The reference electrode was Ag/AgNO3 with an acetonitrile filling solution saturated with LiCl. The counter electrode was a platinum wire. Voltamograms at mercury were determined at scan rates of 50, 100, 200, and 500 mV/s.
The solutions used in C.V. studies contained test sample at a concentration of 0.2-0.7 mM and tetrabutylammonium tetrafluoroborate (Bu4NBF4) or tetrabutylammonium hexafluorophosphate (Bu4NPF6) supporting electrolyte at a concentration of 0.1M. The solution was deoxygenated by bubbling solvent-saturated nitrogen or argon through the solution for 15 minutes. Variations in the reference potential were accounted for by determining the C.V. of a Ru(acac)3 standard on a daily basis.

SMILES	Epc(V) (first or only reduction listed)	Reduction process (first or only reduction listed)	Epc(V) (second reduction listed)	Reduction process (second reduction listed)
CC(=NO)C(C)(C)NCCCNC(C)(C)C(Cn1ccnc1[N+](=O)[O-])=NO [Example 1, 3,3,9,9-Tetramethyl-1-(2-nitro-1H-imidazo-1-yl)-4,8-diazaundecane-2,10-dione dioxime]	−1.52 V	reversible		
CC(=NO)C(C)(C)NCCCNC(C)(C)C(Cn1cnc([N+](=O)[O-])c1)=NO [Example 2, 3,3,9,9-Tetramethyl-1-(4-nitro-1H-imidazo-1-yl)-4,8-diazaundecane-2,10-dione dioxime]	−1.81 V	reversible		
CC(=NO)C(C)(C)NCCCNC(C)(C)C(CCn1ccnc1[N+](=O)[O-])=NO [Example 3, 4,4,10,10-Tetramethyl-1-(2-nitro-1H-imidazo-1-yl)-5,9-diazadodecane-3,11-dione dioxime]	−1.54 V	reversible		
CC(=NO)C(C)(C)NCC(O)CNC(C)(C)C(Cn1ccnc1[N+](=O)[O-])=NO (stereo not shown) [Example 4, 6-Hydroxy-3,3,9,9-tetramethyl-1-(2-nitro-1H-imidazo-1-yl)-4,8-diazaundecane-2,10-dione dioxime]	−1.51 V	reversible		
CC(=NO)C(C)(C)NCC(CNC(C)(C)C(C)=NO)NC(=O)Cn1ccnc1[N+](=O)[O-] (stereo not shown) [Example 5, 3,3,9,9-Tetramethyl-6-((2-nitro-1H-imidazo-1-yl)acetamido)-4,8-diazaundecane-2,10-dione dioxime]	−1.52 V	reversible		
CC1=[N+](O)[99Tc-]23(=[O])[N](CCC[N]2C1(C)C)C(C)(C)C(Cn1cnc([N+](=O)[O-])c1)=[N+]3[O-] [Example 6a, [^99Tc]Oxo[[3,3,9,9-tetramethyl-1-(4-nitro-1H-imidazo-1-yl)-4,8-diazaundecane-2,10-dione dioximato]-(3-)-N,N′,N″,N′″]technetium(V)]	−1.81 V	reversible	−2.02 V	irreversible
CC1=[N+](O)[99Tc-]23(=[O])[N](CCC[N]2C1(C)C)C(C)(C)C(CCn1ccnc1[N+](=O)[O-])=[N+]3[O-] [Example 19, [^99Tc]Oxo[[4,4,10,10-tetramethyl-1-(2-nitro-1H-imidazo-1-yl)-5,9-diazadodecane-3,11-dione dioximato](3-)-N,N′,N″,N′″]technetium(V)]	−1.53 V	reversible	−2.07 V	irreversible
Cc1ncc([N+](=O)[O-])n1CCO [Metronidazole, reference compound]	−1.62 V	reversible		
COCC(O)Cn1ccnc1[N+](=O)[O-] (stereo not shown) [Misonidazole, reference compound]	−1.49 V	reversible		
